# Results reported in US20120029054A1, “RNA Interference Mediated Inhibition of GATA Binding Protein 3 (GATA3) Gene Expression Using Short Intefering Nucleic Acid (siNA)” (Merck Sharp & Dohme Corp., priority 2009, published 2012).
# [invAb] = inverted abasic unit; m = 2'-O-methyl; r = 2'-OH (RNA); f = 2'-fluoro
# Key:
# [1] = test system: GATA3 mRNA; test: GATA3 mRNA knock-down (Taqman qRT-PCR) after RNAiMax transfection of human MCF7 cells; screen and IC50 dose response; format: cell-based; details: 10 nM siNA, MCF7 cells, 24 hrs
# Method: MCF7 (human; ATCC cat# HTB-22): Cells were cultured at 37° C. in the presence of 5% CO2 and grown in Eagle's Minimum Essential medium with supplemented with fetal bovine serum at a final concentration of 10% and 100 μg/mL of streptomycin and 100 U/mL penicillin.
# (§1) Cells were plated in all wells of a tissue-culture treated, 96-well plate at a final count of 5000 cells/well in 100 μL of the appropriate culture media. The cells were cultured for 24 hours after plating at 37° C. in the presence of 5% CO2.
# (§2) After 24 hours, complexes containing siNA and RNAiMax were created as follows: A solution of RNAiMax diluted 33-fold in OPTI-MEM was prepared. In parallel, solutions of the siNAs for testing were prepared to a final concentration of 120 nM in OPTI-MEM. After incubation of RNAiMax/OPTI-MEM solution at room temperature for 5 min, an equal volume of the siNA solution and the RNAiMax solution were added together for each of the siNAs.
# (§3) This solution was incubated at room temperature for 20 minutes. After incubation, 20 uL of the solution was added to each of the relevant wells. The final concentration of siNA in each well was 10 nM and the final volume of RNAiMax in each well was 0.3 ul.
# (§4) The time of incubation with the RNAiMax-siNA complexes was 24 hours and there was no change in media between transfection and harvesting, unless otherwise indicated.
# (§5) RNA was extracted from a 96-well plate using the TaqMan® Gene Expression Cells-to-CT™ Kit (Cat#4399002) with a modified protocol. Briefly, a 60 uL (1 plate) or 110 uL (2 plates) of the Lysis Solution with DNase I was dispensed into each well of the Lysis Buffer Plate (twin.tec full skirt plate). The lysis buffer and stop plates were stored at 4° C. until the cells were washed.
# (§6) The plate was spun at 1100 rpm for 5 minutes. The culture medium was aspirated and discarded from the wells of the culture plate. The lysis was performed automatically using a BioMek FX instrument and method. After the Biomek method was completed, the lysis plate was incubated for 2 min. at room temperature. The lysis plate can be stored for 2 hours at 4° C., or at −20° C. or −80° C. for two months.
# (§7) Each well of the reverse transcription plate required 10 uL of 2× reverse transcriptase Buffer, 1 uL of 20× reverse transcription enzyme and 2 uL of nuclease-free water. The reverse transcription master mix was prepared by mixing 2× reverse transcription buffer, 20× reverse transcription enzyme mix, and nuclease-free water. 13 uL of the reverse transcription master mix was dispensed into each well of the reverse transcription plate (semi-skirted). A separate reverse transcription plate was prepared for each cell plate. The plate was loaded onto a Biomek NX or Biomek FX Dual-96 and the Biomek method was run. The program is programmed to automatically added 7 uL of lysate from the cell lysis procedure described above into each well of the reverse transcription plate. The plate is sealed and spun on a centrifuge (1000 rpm for 30 seconds) to settle the contents to the bottom of the reverse transcription plate. The plate is placed in a thermocycler at 37° C. for 60 min, 95° C. for 5 min, and 4° C. until the plate is removed from the thermocycler. Upon removal, if not used immediately, the plate was frozen at −20° C.
# (§8) A series of probes and primers were used to detect the various mRNA transcripts of the genes of β-Actin (human cell line only), and of GATA3 and GAPDH in mouse and human cell lines. All Taqman probes and primers for the experiments here-in described were supplied as pre-validated sets by Applied Biosystems, Inc. (see Table 2).
# (§9) The assays were performed on an ABI 7900 instrument, according to the manufacturer's instructions. A TaqMan Gene Expression Master Mix (provided in the Cells-to-CT™, Applied Biosystems, Cat #4399002) was used. The PCR reactions were carried out at 50° C. for 2 min, 95° C. for 20 min followed by 40 cycles at 95° C. for 15 secs and 60° C. for 1 min. […]
# [2] = test system: GATA3 mRNA; test: GATA3 mRNA knock-down (Taqman qRT-PCR) after RNAiMax transfection of mouse RAG cells; format: cell-based; details: 10 nM siNA, 24 hrs, average of 2 experiments
# Method: RAG (murine; ATCC cat# CCL-142): Cells were cultured at 37° C. in the presence of 5% CO2 and grown in Eagle's Minimum Essential medium with supplemented with 10% of fetal bovine serum, 100 μg/mL of streptomycin, and 100 U/mL penicillin.
# as §1, §2, §3, §4, §5, §6, §7, §8, §9
Substance,% KD Human ([1]; average of 3 experiments) [%],% KD Mouse [2] [%],% KD Human ([1]; * Hs00231122_m1 Taqman Assay),% KD Human ([1]; ** Hs00922328_m1 Taqman Assay)
"30284-DC: GATA3 siNA duplex, human/mouse site 2155: sense B uGcuGAAcAuuGcAuAuAA TTB (SEQ 121), antisense UUAuAuGcAAuGuucAGcAUU (SEQ 122) (sense UGCUGAACAUUGCAUAUAATT; antisense UUAUAUGCAAUGUUCAGCAUU; sense: DNA at AGT, 2'-fluoro at CU, [invAb] at 5' end, 3' end, backbone not given here; antisense: sugars from the 5' end rrrfmfmfmmfmfffmmfrmm, backbone not given here)",46 ± 5,65 ± 0,,
"30276-DC: GATA3 siNA duplex, mouse site 678: sense B GGGccucGGccAuucGuAc TTB (SEQ 105), antisense GUAcGAAuGGccGAGGcccUU (SEQ 106) (sense GGGCCUCGGCCAUUCGUACTT; antisense GUACGAAUGGCCGAGGCCCUU; sense: DNA at AGT, 2'-fluoro at CU, [invAb] at 5' end, 3' end, backbone not given here; antisense: sugars from the 5' end rrrfmmmfmmffmmmmfffmm, backbone not given here)",−12 ± 16,−2 ± 6,,
"30257-DC: GATA3 siNA duplex, site 1830: sense B ccAuccAGccuGuccuuuG TTB (SEQ 67), antisense CAAAGGAcAGGcuGGAuGGUU (SEQ 68) (sense CCAUCCAGCCUGUCCUUUGTT; antisense CAAAGGACAGGCUGGAUGGUU; chemistry not fully specified)",−3 ± 3,−4 ± 5,,
"30258-DC: GATA3 siNA duplex, site 990: sense B cAcGccAGcccGcAccucu TTB (SEQ 69), antisense AGAGGuGcGGGcuGGcGuGUU (SEQ 70) (sense CACGCCAGCCCGCACCUCUTT; antisense AGAGGUGCGGGCUGGCGUGUU; chemistry not fully specified)",0 ± 4,−12 ± 4,,
"30264-DC: GATA3 siNA duplex, site 690: sense B GAGGAGGuGGAuGuGcuuu TTB (SEQ 81), antisense AAAGcAcAuccAccuccucUU (SEQ 82) (sense GAGGAGGUGGAUGUGCUUUTT; antisense AAAGCACAUCCACCUCCUCUU; chemistry not fully specified)",−20 ± 12,−18 ± 0,,
"30259-DC: GATA3 siNA duplex, site 713: sense B cAucGAcGGucAAGGcAAc TTB (SEQ 71), antisense GUUGccuuGAccGucGAuGUU (SEQ 72) (sense CAUCGACGGUCAAGGCAACTT; antisense GUUGCCUUGACCGUCGAUGUU; chemistry not fully specified)",36 ± 2,60 ± 1,,
"30286-DC: GATA3 siNA duplex, human/mouse site 1956: sense B GcAGGAGcAGuAucAuGAA TTB (SEQ 125), antisense UUCAuGAuAcuGcuccuGcUU (SEQ 126) (sense GCAGGAGCAGUAUCAUGAATT; antisense UUCAUGAUACUGCUCCUGCUU; sense: DNA at AGT, 2'-fluoro at CU, [invAb] at 5' end, 3' end, backbone not given here; antisense: sugars from the 5' end rrrmfmmfmffmfffffmfmm, backbone not given here)",,66 ± 0,45 ± 3* %,40 ± 16** %
"30272-DC: GATA3 siNA duplex, mouse site 807: sense B GAGGuAuccuccGAcccAc TTB (SEQ 97), antisense GUGGGucGGAGGAuAccucUU (SEQ 98) (sense GAGGUAUCCUCCGACCCACTT; antisense GUGGGUCGGAGGAUACCUCUU; chemistry not fully specified)",,85 ± 0,69 ± 3* %,33 ± 19** %
"30269-DC: GATA3 siNA duplex, mouse site 1449: sense B cuGcGGAcucuAccAuAAA TTB (SEQ 91), antisense UUUAuGGuAGAGuccGcAGUU (SEQ 92) (sense CUGCGGACUCUACCAUAAATT; antisense UUUAUGGUAGAGUCCGCAGUU; sense: DNA at AGT, 2'-fluoro at CU, [invAb] at 5' end, 3' end, backbone not given here; antisense: sugars from the 5' end rrrmfmmfmmmmfffmfmmmm, backbone not given here)",−36 ± 9,83 ± 0,,
"30278-DC: GATA3 siNA duplex, mouse site 720: sense B GGAAGAGGuGGAcGuAcuu TTB (SEQ 109), antisense AAGuAcGuCCAccucuuccUU (SEQ 110) (sense GGAAGAGGUGGACGUACUUTT; antisense AAGUACGUCCACCUCUUCCUU; sense: DNA at AGT, 2'-fluoro at CU, [invAb] at 5' end, 3' end, backbone not given here; antisense: chemistry not given here)",−18 ± 5,60 ± 2,,
"30268-DC: GATA3 siNA duplex, mouse site 1533: sense B GAcAuccuGcGcGaacuGu TTB (SEQ 89), antisense ACAGuucGcGcAGGAuGucUU (SEQ 90) (sense GACAUCCUGCGCGAACUGUTT; antisense ACAGUUCGCGCAGGAUGUCUU; chemistry not fully specified)",16 ± 3,17 ± 2,,
